Columns and labels:
[1] = system: Spodoptera littoralis; assay: Activity against Spodoptera littoralis (Egyptian cotton leaf worm); format: in vivo; details: foliar, 72 h, application rate of 200 ppm, sprayed cotton leaf discs, L1 larvae, 3 days after infestation, read-out: control (mortality, anti-feeding effect, or growth inhibition)
Protocol: Cotton leaf discs were placed onto agar in 24-well microtiter plates and sprayed with aqueous test solutions prepared from 10′000 ppm DMSO stock solutions. After drying the leaf discs were infested with five L1 larvae. The samples were assessed for mortality, anti-feeding effect, and growth inhibition in comparison to untreated samples 3 days after infestation. Control of Spodoptera littoralis by a test sample is given when at least one of the categories mortality, anti-feedant effect, and growth inhibition is higher than the untreated sample.

[2] = system: Bemisia tabaci; assay: Activity against Bemisia tabaci (cotton white fly); format: in vivo; details: foliar, 144 h, application rate of 200 ppm, sprayed cotton leaf discs, adult white flies, 6 days after incubation
Protocol: Cotton leaf discs were placed on agar in 24-well microtiter plates and sprayed with aqueous test solutions prepared from 10′000 ppm DMSO stock solutions. After drying the leaf discs were infested with adult white flies. The samples were checked for mortality 6 days after incubation.

[3] = system: Euschistus heros; assay: Activity against Euschistus heros (neotropical brown stink bug); format: in vivo; details: 120 h, application rate of 200 ppm, sprayed soybean leaf, N-2 nymphs, 5 days after infestation, read-out: effect in at least one of the two categories (mortality or growth inhibition)
Protocol: Soybean leaf on agar in 24-well microtiter plates were sprayed with aqueous test solutions prepared from 10′000 ppm DMSO stock solutions. After drying the leaf were infested with N-2 nymphs. The samples were assessed for mortality and growth inhibition in comparison to untreated samples 5 days after infestation.

[4] = system: Plutella xylostella; assay: Activity against Plutella xylostella (diamond back moth), artificial diet; format: in vivo; details: 120 h, application rate of 200 ppm, L2 larvae on artificial diet, 5 days after infestation, read-out: effect in at least one of the two categories (mortality or growth inhibition)
Protocol: (§1) 24-well microtiter plates with artificial diet were treated with aqueous test solutions prepared from 10′000 ppm DMSO stock solutions by pipetting. After drying, the plates were infested with L2 larvae (10 to 15 per well). The samples were assessed for mortality and growth inhibition in comparison to untreated samples 5 days after infestation.

[5] = system: Diabrotica Balteata; assay: Activity against Diabrotica balteata (corn root worm); format: in vivo; details: 96 h, application rate of 200 ppm, sprayed maize sprouts, L2 larvae, 4 days after infestation, read-out: effect in at least one of the two categories (mortality or growth inhibition)
Protocol: as §1, with “Maize sprouts placed onto an agar layer in 24-well” for “24-well”, “plates” for “plates with artificial diet”, “spraying.” for “pipetting.”, “(6” for “(10”, “10” for “15”, “4” for “5”

[6] = system: Myzus persicae; assay: Activity against Myzus persicae (green peach aphid), roots of pea seedlings in test solution; format: in vivo; details: 144 h, test rate of 24 ppm, roots of infested pea seedlings in test solution, 6 days
Protocol: Roots of pea seedlings infested with an aphid population of mixed ages were placed directly in the aqueous test solutions prepared from 10′000 DMSO stock solutions. The samples were assessed for mortality 6 days after placing seedlings in test solutions.

[7] = system: Myzus persicae; assay: Activity against Myzus persicae (green peach aphid), sprayed sunflower leaf discs; format: in vivo; details: foliar, 144 h, application rate of 200 ppm, aphid population of mixed ages, 6 days after infestation
Protocol: (§2) Sunflower leaf discs were placed on agar in a 24-well microtiter plate and sprayed with aqueous test solutions prepared from 10′000 ppm DMSO stock solutions. After drying, the leaf discs were infested with an aphid population of mixed ages. The samples were assessed for mortality 6 days after infestation.

[8] = system: Frankliniella occidentalis; assay: Activity against Frankliniella occidentalis (western flower thrips); format: in vivo; details: foliar, 168 h, application rate of 200 ppm, sprayed sunflower leaf discs, population of mixed ages, 7 days after infestation
Protocol: as §2, with “in” for “in a”, “plates” for “plate”, “[…]” for “10′000 ppm”, “drying” for “drying,”, “a Frankliniella” for “an aphid”, “7” for “6”

[9] = system: Thrips tabaci; assay: Activity against Thrips tabaci (onion thrips); format: in vivo; details: foliar, 144 h, application rate of 200 ppm, sprayed sunflower leaf discs, thrips population of mixed ages, 6 days after infestation
Protocol: as §2, with “in” for “in a”, “plates” for “plate”, “drying” for “drying,”, “a thrips” for “an aphid”

Structure (SMILES)	melting point [°C]	percent control (mortality, anti-feedant effect or growth inhibition) at 200 ppm [1] [%]	mortality at 200 ppm [2] [%]	percent effect (mortality or growth inhibition) at 200 ppm [3] [%]	percent effect (mortality or growth inhibition) at 200 ppm [4] [%]	percent effect (mortality or growth inhibition) at 200 ppm [5] [%]	mortality at 24 ppm [6] [%]	mortality at 200 ppm [7] [%]	mortality at 200 ppm [8] [%]	mortality at 200 ppm [9] [%]
CCS(=O)(=O)c1cc(C(=O)N=S(C)(=O)CC)cnc1-n1cc2cnc(C(F)(F)F)cc2n1 (stereo not shown) [Compound P25, N-(ethyl-methyl-oxo-λ^6-sulfanylidene)-5-ethylsulfonyl-6-[6-(trifluoromethyl)pyrazolo[4,3-c]pyridin-2-yl]pyridine-3-carboxamide]	216 to 219									
CCS(=O)(=O)c1cc(C(=O)N=S(=O)(CC)CC)cnc1-n1cc2cnc(C(F)(F)F)cc2n1 [Compound P26, N-[diethyl(oxo)-λ^6-sulfanylidene]-5-ethylsulfonyl-6-[6-(trifluoromethyl)pyrazolo[4,3-c]pyridin-2-yl]pyridine-3-carboxamide]	185 to 189									
CCS(=O)(=O)c1cc(C(=O)N=S2(=O)CCC2)cnc1-c1nc2cc(C(F)(F)F)cnc2n1C [Compound P16, 5-ethylsulfonyl-6-[3-methyl-6-(trifluoromethyl)imidazo[4,5-b]pyridin-2-yl]-N-(1-oxothietan-1-ylidene)pyridine-3-carboxamide]		≥ 80	≥ 80	≥ 80	≥ 80	≥ 80	≥ 80	≥ 80		
CCS(=O)(=O)c1cc(C(=O)N=S(C)(=O)CC)cnc1-c1nc2cc(C(F)(F)F)ncc2n1C (stereo not shown) [Compound P8, N-(ethyl-methyl-oxo-λ^6-sulfanylidene)-5-ethylsulfonyl-6-[3-methyl-6-(trifluoromethyl)imidazo[4,5-c]pyridin-2-yl]pyridine-3-carboxamide]		≥ 80	≥ 80	≥ 80	≥ 80	≥ 80	≥ 80	≥ 80	≥ 80	
CCS(=O)(=O)c1cc(C(=O)N=S(C)(C)=O)cnc1-c1cn2cnc(C(F)(F)F)cc2n1 [Compound P4, N-[dimethyl(oxo)-λ^6-sulfanylidene]-5-ethylsulfonyl-6-[7-(trifluoromethyl)imidazo[1,2-c]pyrimidin-2-yl]pyridine-3-carboxamide]		≥ 80	≥ 80	≥ 80	≥ 80	≥ 80	≥ 80	≥ 80	≥ 80	
CCS(=O)(=O)c1cc(C(=O)N=S(C)(=O)CC)cnc1-c1nc2cc(C(F)(F)F)cnc2n1C (stereo not shown) [Compound P15, N-(ethyl-methyl-oxo-λ^6-sulfanylidene)-5-ethylsulfonyl-6-[3-methyl-6-(trifluoromethyl)imidazo[4,5-b]pyridin-2-yl]pyridine-3-carboxamide]		≥ 80	≥ 80	≥ 80	≥ 80	≥ 80	≥ 80	≥ 80	≥ 80	
CCS(=O)(=O)c1cc(C(=O)N=S(C)(C)=O)cnc1-c1nc2cc(C(F)(F)F)cnc2n1C [Compound P14, N-[dimethyl(oxo)-λ^6-sulfanylidene]-5-ethylsulfonyl-6-[3-methyl-6-(trifluoromethyl)imidazo[4,5-b]pyridin-2-yl]pyridine-3-carboxamide]		≥ 80	≥ 80	≥ 80	≥ 80	≥ 80	≥ 80	≥ 80	≥ 80	
CCS(=O)(=O)c1cc(C(=O)N=S(C)(C)=O)cnc1-c1nc2cc(C(F)(F)F)ncc2n1C [Compound P1, N-[dimethyl(oxo)-λ^6-sulfanylidene]-5-ethylsulfonyl-6-[3-methyl-6-(trifluoromethyl)imidazo[4,5-c]pyridin-2-yl]pyridine-3-carboxamide]			≥ 80	≥ 80	≥ 80	≥ 80	≥ 80	≥ 80	≥ 80	≥ 80
CCS(=O)(=O)c1cc(C(=O)N=S2(=O)CCC2)cnc1-c1cn2cnc(C(F)(F)F)cc2n1 [Compound P13, 5-ethylsulfonyl-N-(1-oxothietan-1-ylidene)-6-[7-(trifluoromethyl)imidazo[1,2-c]pyrimidin-2-yl]pyridine-3-carboxamide]		≥ 80		≥ 80	≥ 80	≥ 80	≥ 80	≥ 80		

From patent US10894792B2, “Pesticidally active heterocyclic derivatives with sulfur containing substituents” (SYNGENTA PARTICIPATIONS AG, priority 2017, dated 2021)
